system: LTD4; test: LTD4 antagonism in isolated guinea-pig trachea (LTD4-induced contraction); assay type: cell-based; conditions: Cavia porcellus, 5 min, test compound 10^-5 g/ml, LTD4 2×10^-8 g/ml
Description: (ii) LTC4 and LTD4 antagonisms in guinea-pig trachea
Antagonism for LTC4 and LTD4 were determined in isolated guinea-pig trachea prepared as spiral strip. 10 Tracheal preparations were suspended under 1 g tension in […] and they were incubated for 1 hr prior to use. Contractile responses to LTC4 (2×10^-8 g/ml) and LTD4 (2×10^-8 g/ml) were obtained after the maximal response to histamine (10^-4 M). Test compounds dissolved in 100% dimethyl sulfoxide were added to the organ baths (final concentration of 10^-5 g/ml) 5 min prior to LTC4 and LTD4 addition, and then contractile responses to LTC4 and LTD4 were compared with those of control which was obtained from a paired trachea in the absence of test compounds. LTC4 - and LTD4 -induced contractions were expressed as a percentage of the maximal response to histamine. The antagonism was determined as follows: Antagonism (%)=(1.0-% contraction in test/% contraction in control)×100

First: CC(C)n1ncc(N(C)Cc2cccc(OCCCCCO)c2)c(Cl)c1=O [Compound No. 150, 4-Chloro-5-[3-(5-hydroxy)pentoxy-N-methyl-benzylamino]-2-i-propyl-3(2H)pyridazinone]
Second: COCCCCCOc1cccc(CN(C)c2cnn(C(C)C)c(=O)c2Cl)c1 [Compound No. 149, 4-Chloro-5-[3-(5-methoxy)pentoxy-N-methylbenzylamino]-2-i-propyl-3(2H)pyridazinone]
The inhibition at 10 µg/mL of the first is lower: 57% for the first, 68% for the second.

First: CNC(=O)CCCCOc1cccc(CNc2cnn(C(C)C)c(=O)c2Cl)c1 [Compound No. 146, 4-Chloro-5-[3-(4-N-methylaminocarbonyl)butoxybenzylamino]-2-i-propyl-3(2H)pyridazinone]
Second: COC(=O)CCCCOc1cccc(CNc2cnn(C(C)C)c(=O)c2Cl)c1 [Compound No. 144]
The inhibition at 10 µg/mL of the first is lower: 32% for the first, 44% for the second.

Compared with COc1ccc(CNc2cnn(C(C)C)c(=O)c2C)cc1 [Compound No. 151, 4-Methyl-5-(4-methoxybenzylamino)-2-i-propyl-3(2H)-pyridazinone], CCOc1cccc(CNc2cnn(C(C)C)c(=O)c2C)c1 [compound 152] is lower in inhibition at 10 µg/mL: 78% for the first, 75% for the second.

Going from COc1ccc(CNc2cnn(C(C)C)c(=O)c2Cl)cc1OCCCCC(=O)OC(C)(C)C [compound 141] to COC(=O)CCCCOc1cc(CNc2cnn(C(C)C)c(=O)c2Cl)ccc1OC [compound 145], the inhibition at 10 µg/mL falls from 90% to 81%.

First: CC(C)n1ncc(NCc2cccc(O)c2)c(Cl)c1=O [Compound No. 137, 4-Chloro-5-(3-hydroxybenzylamino)-2-i-propyl-3-(2H)pyridazinone]
Second: COc1cccc(CNc2cnn(C(C)C)c(=O)c2Cl)c1 [Compound No. 7]
The inhibition at 10 µg/mL of the first is higher: 96% for the first, 92% for the second.

Compared with CCCOc1cccc(CNc2cnn(CC)c(=O)c2Br)c1 [compound 157], CCCOc1cc(CNc2cnn(CC)c(=O)c2Br)ccc1OC [compound 161] is higher in inhibition at 10 µg/mL: 88% for the first, 95% for the second.

First: CCOC(=O)CCNC(=O)/C=C/c1ccc(CNc2cnn(C(C)(C)C)c(=O)c2Cl)cc1 [Compound No. 60]
Second: CC(C)(C)n1ncc(NCc2ccc(/C=C/C(=O)NCCC(=O)O)cc2)c(Cl)c1=O [Compound No. 61, 4-Chloro-5-[4-(β-carboxyethylaminocarbonyl-2-transethenyl)benzylamino]-2-t-butyl-3(2H)pyridazinone]
The inhibition at 10 µg/mL of the first is lower: 15% for the first, 21% for the second.

Compared with CCn1ncc(NCc2ccc(OC)cc2OC)c(Br)c1=O [compound 159], COc1ccc(CNc2cnn(C(C)C)c(=O)c2Br)c(OC)c1 [compound 169] is higher in inhibition at 10 µg/mL: 98% for the first, 100% for the second.

First: CCOc1cc(CNc2cnn(CC)c(=O)c2Br)ccc1OC [compound 160]
Second: CCOc1cc(CNc2cnn(C(C)C)c(=O)c2Br)ccc1OC [compound 166]
The inhibition at 10 µg/mL of the first is lower: 98% for the first, 100% for the second.

Going from Cc1ccc(CNc2cnn(C(C)C)c(=O)c2Br)c(C)c1 [compound 168] to COc1cccc(CNc2cnn(C(C)C)c(=O)c2Br)c1 [compound 163], the inhibition at 10 µg/mL falls from 99% to 95%.

Going from COc1cccc(CNc2cnn(C(C)(C)C)c(=O)c2Cl)c1 [Compound No. 8] to CCCCCOc1cc(CNc2cnn(C(C)(C)C)c(=O)c2Cl)ccc1OC [compound 20], the inhibition at 10 µg/mL falls from 53% to 17%.

First: CCOc1cccc(CNc2cnn(CC)c(=O)c2Cl)c1O [compound 129]
Second: CCOc1cccc(CNc2cnn(CC)c(=O)c2Cl)c1OC [compound 110]
The inhibition at 10 µg/mL of the first is lower: 48% for the first, 69% for the second.

Compared with CC(C)n1ncc(NCc2ccc(OCc3ccccc3)cc2)c(Cl)c1=O [compound 96], CC(C)n1ncc(NCc2cccc(OCc3ccccc3)c2)c(Cl)c1=O [Compound No. 95, 4-Chloro-5-(3-benzyloxybenzylamino)-2-i-propyl-3-(2H)pyridazinone] is higher in inhibition at 10 µg/mL: 59% for the first, 62% for the second.

Going from CCOc1cccc(CNc2cnn(C(C)C)c(=O)c2Cl)c1O [compound 127] to CCOc1ccccc1CNc1cnn(C(C)C)c(=O)c1Cl [compound 92], the inhibition at 10 µg/mL rises from 76% to 92%.

First: CCc1cc(CNc2cnn(C(C)C)c(=O)c2Cl)ccc1OC [compound 84]
Second: COc1ccc(CNc2cnn(C(C)C)c(=O)c2Cl)cc1O [compound 138]
The inhibition at 10 µg/mL of the first is higher: 96% for the first, 86% for the second.

First: CCOc1cccc(CNc2cnn(C(C)C)c(=O)c2Cl)c1OC [compound 111]
Second: CCOc1cccc(CNc2cnn(C(C)C)c(=O)c2Cl)c1OCc1ccccc1 [compound 114]
The inhibition at 10 µg/mL of the first is lower: 72% for the first, 77% for the second.

First: CCOc1cc(CNc2cnn(C(C)C)c(=O)c2Cl)ccc1OCc1ccccc1 [compound 113]
Second: CCCOc1cc(CNc2cnn(C(C)C)c(=O)c2Cl)ccc1OCc1ccccc1 [compound 117]
The inhibition at 10 µg/mL of the first is higher: 40% for the first, 25% for the second.

First: CC(C)n1ncc(NCc2ccc(O)cc2)c(Cl)c1=O [compound 130]
Second: CC(C)n1ncc(NCc2ccc(Cl)cc2)c(Cl)c1=O [compound 123]
The inhibition at 10 µg/mL of the first is higher: 100% for the first, 88% for the second.

First: COCCOc1cc(CNc2cnn(C(C)C)c(=O)c2Cl)ccc1OC [compound 148]
Second: CCCOc1cc(CNc2cnn(C(C)C)c(=O)c2Br)ccc1OC [compound 167]
The inhibition at 10 µg/mL of the first is lower: 62% for the first, 96% for the second.

First: CCc1cc(CNc2cnn(CC)c(=O)c2Cl)ccc1OC [compound 85]
Second: CCc1cc(CNc2cnn(CC)c(=O)c2Cl)ccc1O [compound 132]
The inhibition at 10 µg/mL of the first is higher: 91% for the first, 61% for the second.

First: CCCn1ncc(NCc2ccc(N(C)C)cc2)c(Cl)c1=O [compound 126]
Second: CCn1ncc(NCc2ccc(N(C)C)cc2)c(Cl)c1=O [compound 46]
The inhibition at 10 µg/mL of the first is higher: 63% for the first, 49% for the second.

Going from CCOCCNC(=O)c1ccc(CNc2cnn(C(C)(C)C)c(=O)c2Cl)cc1 [compound 56] to CCOCCCNC(=O)c1ccc(CNc2cnn(C(C)(C)C)c(=O)c2Cl)cc1 [compound 57], the inhibition at 10 µg/mL rises from 19% to 27%.

Going from CCc1cc(CNc2cnn(CC)c(=O)c2Cl)ccc1OCc1ccccc1 [compound 83] to CCOc1cc(CNc2cnn(CC)c(=O)c2Cl)ccc1OCc1ccccc1 [compound 115], the inhibition at 10 µg/mL falls from 74% to 73%.

First: COc1ccc(OC)c(CNc2cnn(C(C)C)c(=O)c2Cl)c1 [compound 104]
Second: COc1cc(CNc2cnn(C(C)C)c(=O)c2Cl)cc(OC)c1 [compound 98]
The inhibition at 10 µg/mL of the first is higher: 68% for the first, 55% for the second.

Going from CC(C)n1ncc(NCc2cccc(OCCCCCO)c2)c(Cl)c1=O [Compound No. 147, 4-Chloro-5-[3-(5-hydroxy)pentoxybenzylamino]-2-i-propyl-3(2H)pyridazinone] to CC(C)n1ncc(NCc2cccc(OCCCCC(=O)O)c2)c(Cl)c1=O [Compound No. 142, 4-Chloro-5-[3-(4-carboxy)butoxybenzylamino]-2-i-propyl-3(2H)pyridazinone], the inhibition at 10 µg/mL falls from 73% to 41%.

First: CCn1ncc(NCc2ccc(OC)cc2)c(Br)c1=O [compound 154]
Second: CCn1ncc(NCc2ccc(SC)cc2)c(Cl)c1=O [compound 124]
The inhibition at 10 µg/mL of the first is higher: 100% for the first, 71% for the second.

Going from C=CCNC(=O)c1ccc(CNc2cnn(C(C)(C)C)c(=O)c2Cl)cc1 [Compound No. 54, 4-Chloro-5-(4-allylaminocarbonylbenzylamino)-2-t-butyl-3(2H)pyridazinone] to CN(C)CCNC(=O)c1ccc(CNc2cnn(C(C)(C)C)c(=O)c2Cl)cc1 [compound 58], the inhibition at 10 µg/mL rises from 10% to 23%.

First: CCOc1cccc(CNc2cnn(C(C)C)c(=O)c2Br)c1 [compound 165]
Second: CCOc1cc(CNc2cnn(C(C)C)c(=O)c2Cl)ccc1O [compound 135]
The inhibition at 10 µg/mL of the first is higher: 71% for the first, 61% for the second.

First: CCCCCOc1cc(CNc2cnn(CC)c(=O)c2Cl)ccc1OC [compound 19]
Second: CCCOc1cc(CNc2cnn(CC)c(=O)c2Cl)ccc1OCc1ccccc1 [compound 118]
The inhibition at 10 µg/mL of the first is higher: 66% for the first, 61% for the second.

First: COc1cc(CNc2cnn(C(C)(C)C)c(=O)c2Cl)cc(OC)c1OC [compound 120]
Second: COc1cc(CNc2cnn(C(C)C)c(=O)c2Cl)cc(OC)c1OC [compound 122]
The inhibition at 10 µg/mL of the first is higher: 26% for the first, 23% for the second.

Going from COc1ccc(CNc2cnn(C(C)C)c(=O)c2)c(OC)c1 [Compound No. 100, 5-(2,4-dimethoxybenzylamino)-2-i-propyl-3(2H)pyridazinone] to CCc1cc(CNc2cnn(C(C)C)c(=O)c2Cl)ccc1O [compound 131], the inhibition at 10 µg/mL rises from 21% to 52%.

Compared with CN(C)c1ccc(CNc2cnn(C(C)(C)C)c(=O)c2Br)cc1 [compound 28], CCCN(CCC)C(=O)c1ccc(CNc2cnn(C(C)(C)C)c(=O)c2Cl)cc1 [compound 39] is higher in inhibition at 10 µg/mL: 52% for the first, 67% for the second.

First: CC(C)n1ncc(NCc2cccc(OCCCCC(=O)OC(C)(C)C)c2)c(Cl)c1=O [Compound No. 139, 4-Chloro-5-[3-(4-t-butoxycarbonyl)butoxybenzylamino]-2-i-propyl-3(2H)pyridazinone]
Second: CCCN(CCC)C(=O)c1ccc(CNc2cnn(C(C)C)c(=O)c2Cl)cc1 [Compound No. 125, 4-Chloro-5-(4-di-n-propylaminocarbonylbenzylamino)-2-i-propyl-3(2H)pyridazinone]
The inhibition at 10 µg/mL of the first is higher: 57% for the first, 53% for the second.

same assay, conditions: test compound 10^-5 g/ml, LTD4 2×10^-8 g/ml, 5 min

Going from CC(C)n1ncc(NCc2ccc(N(C)C)cc2)c(Cl)c1=O [compound 45] to CN(C)c1ccc(CNc2cnn(C(C)(C)C)c(=O)c2Br)cc1 [compound 47], the LTD4 antagonism rises from 14% to 65%.

For CN(C)CCNC(=O)c1ccc(CNc2cnn(C(C)(C)C)c(=O)c2Cl)cc1 [compound 50], the LTD4 antagonism was 12%.

— US5098900A, “3(2H)pyridazinone, process for its preparation and anti-allergic agent containing it” (Nissan Chemical Industries Ltd., priority 1984, dated 1992)
